These results are taken from article PMC11997985, “Synthesis and In Vitro Profiling of Psilocin Derivatives: Improved Stability and Synthetic Properties” (Journal of Medicinal Chemistry, 2025).

Molecules are shown by their SMILES. Several values for one entry are separate records, joined by “and”; a condition that tells them apart may be missing. Identical values can stand only once. Marks after values point to notes of the source that are not given here.

A short description of data set [1]: Co-factor experiment: microsome suspension with and without NADPH. Particulars: for Co-factor experiment: degradation with and without addition of NADPH compared. In kind it is in vitro ADME, human. How it is done: Therefore, additional experiments comparing stability with and without the addition of NADPH cofactor and a very short incubation period were performed (Tables S4 and S5). […] Due to the rapid observed degradation in microsomes, we decided to investigate the stability of five compounds in human plasma, aiming for a broad range of stabilities (Table 2, Table S6). It should be noted that esterase-labile compounds are notoriously difficult to study in microsomal stability studies.[36]
Table S3 Evaluation of metabolic stability in human microsomes
No. Metabolic stability Comment
4k <10/<10 Low retention in chromatography
8 <10/<10 Low retention in chromatography.
Table S4 Results from the modified microsome assay where degradation with and without the addition of NADPH was compared […]
4d Very low peak area for the first time point,
4e Very low peak area for the first time point,
4f Very low peak area for the first time point,
5 Very low peak area for the first time point,
8 No degradation without co -factor […]
metabolism by the microsomes (consisting mainly of cytochrome P450 enzymes) or if it was due to other factors, the compounds (with the exception of 4k) were incubated in the microsome suspension both with and without the addition of NADPH. Samples […]
(§1) were taken at three timepoints, and the degradation was compared to determine if it was dependent on NADPH. Compound 4k […]
(§2) without the addition of NADPH. […]
(§3) microsomes that need to be activated by a co -factor.
(§4) Table S5 Percent of peak area found in microsome suspension 15 seconds after the addition of NADPH in comparison with the same amount dissolved in H2O/EtOH
(§5) No. Area at 0.25 min. in Area in solution % found in microsomes/NADPH (125 nM) microsome
(§6) Comparison with compounds in solution. A comparison was made between the peak area of the compounds in solution with that obtained in the microsome suspension directly after the addition of NADPH (about 0.25 minutes) (Table S5). Before the addition of NADPH, the compounds are equilibrated in the microsome suspension for approximately five minutes. All compounds were prepared in solution by diluting a portion of the DMSO solutions with H2O/EtOH (75:25) to 125 nM (the final concentration of compounds for analysis in the microsome assay).
(§7) For the compounds where no results from the microsome assay could be reported due to low peak area (4d, 4e, 4f & 5), less than one percent of the expected peak area as compared with the area in solution was detected. […]
(§8) degrade rapidly before the addition of the co-factor after five minutes in incubation. For compounds 4g, 4h, 4i & 4j, which were […]
(§9) higher relative peak areas were found. […]
(§10) without NADPH was only found at 15% of the area seen in solution in the microsome suspension.

Data set [2] is described as follows: Metabolic stability in human microsomes. It counts as in vitro ADME. Particulars: for Metabolic stability in human microsomes: 37 °C, 0.5 mg/mL protein, 1 μM compound, 1 mM NADPH; for Comment on microsome assay: Table S3.
Data set [3] can be described thus: Chemical stability in 1.0 M NaHCO3 and 1.0 M HCl.
A short description of data set [4]: Solubility, screen method, phosphate buffer pH 7.4, 1% DMSO. It counts as physicochemical. The settings on record: phosphate buffer with 1% DMSO; 100 mM phosphate buffer pH 7.4, 1% DMSO; assay range 0.1 to 100 μM.
Data set [5] in a line: Peak area in microsome suspension compared with compounds in solution. In kind it is in vitro ADME, human. The settings on record: peak area 15 seconds after addition of NADPH versus same amount (125 nM) in H2O/EtOH. How it is done:
as §1, §2, §3, §4, §5, §6, §7, §8, §9, §10

Data set [6] can be described thus: Stability in simulated stomach acid (0.10 M HCl). Particulars: 0.10 M HCl (simulated stomach acid).
The conditions of data set [7]: cited from earlier work.

As to `CCCCC(=O)Oc1cccc2[nH]cc(CCN(C)C)c12.O=C(O)/C=C/C(=O)O` [Compound 4c], the Co-factor experiment entry in data set [1] was “No degradation without co-factor”. The “Metabolic stability in human microsomes” value in data set [2] was >200^a μL/min/mg protein and >200 μL/min/mg protein. Also, the “Comment on microsome assay” value in data set [2] is on record as “Rapid degradation”. In addition, the half-life at 24 h, 5 mM in data set [3] (1.0 M HCl) came to 800 min; in data set [3] (1.0 M NaHCO3), 3000 min. This compound also yielded a solubility in data set [4] of 87 µM. In addition, in data set [5], the “% found in microsome suspension” value is given as 0.2%. Moreover, the half-life at 5 mM in data set [6] is over 6.94 days.

For `CN(C)CCc1c[nH]c2cccc(OC(=O)c3ccccc3)c12.O=C(O)/C=C/C(=O)O` [Compound 4h], the Co-factor experiment entry in data set [1] is on record as “Degradation without co-factor”. For the same compound, the microsomal CLint in data set [1] (human, human microsome suspension, both with and without the addition of NADPH, read-out: intrinsic clearance) is over 200 µL/min/mg. In data set [2], the “Metabolic stability in human microsomes” value was >200^a μL/min/mg protein and >200 μL/min/mg protein; the “Comment on microsome assay” value was “Rapid degradation”. In data set [3] (1.0 M HCl), this compound registered a half-life at 5 mM of over 6.94 days. The compound also showed a half-life at 24 h, 5 mM in data set [3] (1.0 M NaHCO3) of 9000 min. The solubility in data set [4] was over 90 µM. For the same compound, the “% found in microsome suspension” value in data set [5] is reported as 44%. In addition, the half-life at 5 mM in data set [6] is over 6.94 days.

Take `CN(C)CCc1c[nH]c2cccc(OS(=O)(=O)O)c12` [Compound 6]: the Co-factor experiment entry in data set [1] is “No degradation without co-factor”. The “Metabolic stability in human microsomes” value in data set [2] was over 200 μL/min/mg protein. The “Comment on microsome assay” value in data set [2] is “Rapid degradation”. The half-life at 5 mM in data set [3] (1.0 M HCl), in data set [3] (1.0 M NaHCO3) and in data set [6] was over 6.94 days in each case. In data set [4], this compound yielded a solubility of over 90 µM. In data set [5], the “% found in microsome suspension” value is recorded as 15%.

As to `CN(C)CCc1c[nH]c2cccc(O)c12` [psilocin freebase, 4-hydroxy-N,N-dimethyltryptamine], the “degradation of psilocin under UV radiation” value in data set [7] (254 nm, in EtOH, after 1.75 h) is recorded as 9%. For the same compound, the “degradation of psilocin in NaOH solution” value in data set [7] (NaOH solution (1 M), after 2 h, ref 46 (Barrow et al.)) is recorded as 60%. Further, the “degradation of psilocin in oxidative conditions” value in data set [7] (oxidative conditions) is reported as “complete degradation after only two hours”.

Usually half-life stands for the time needed for the level to fall by half in the phase considered. Low readings indicate fast loss, high ones slow loss. As usually defined, the solubility is the concentration that dissolves in the medium under given conditions. Higher therefore signals a readily soluble substance.
